Measured values taken from patent US20250074891A1 (Anaxis Pharma Pty Ltd., priority 2021, published 2025).

How the values were obtained:
Conditions in all cases: Table 35
MLKL (full length) = MLKL (full length) (Homo sapiens (Human), UniProt Q8NB16); experiment: KINOMEscan binding assay, MLKL (full length)
Method: (§1) Kinase assays. For most assays, kinase-tagged T7 phage strains were grown in parallel in 24-well blocks in an E. coli host derived from the BL21 strain. E. coli were grown to log-phase and infected with T7 phage from a frozen stock (multiplicity of infection=0.4) and incubated with shaking at 32° C. until lysis (90-150 minutes).
(§2) The Hill Slope was set to −1.

RIP1 = RIP1 (Homo sapiens (Human), UniProt Q13546); experiment: KINOMEscan binding assay, RIP1
RIP3 = RIP3 (Homo sapiens (Human), UniProt Q9Y572); experiment: KINOMEscan binding assay, RIP3
Method: as §1, §2

RIP1, sequence (Q13546 whole entry): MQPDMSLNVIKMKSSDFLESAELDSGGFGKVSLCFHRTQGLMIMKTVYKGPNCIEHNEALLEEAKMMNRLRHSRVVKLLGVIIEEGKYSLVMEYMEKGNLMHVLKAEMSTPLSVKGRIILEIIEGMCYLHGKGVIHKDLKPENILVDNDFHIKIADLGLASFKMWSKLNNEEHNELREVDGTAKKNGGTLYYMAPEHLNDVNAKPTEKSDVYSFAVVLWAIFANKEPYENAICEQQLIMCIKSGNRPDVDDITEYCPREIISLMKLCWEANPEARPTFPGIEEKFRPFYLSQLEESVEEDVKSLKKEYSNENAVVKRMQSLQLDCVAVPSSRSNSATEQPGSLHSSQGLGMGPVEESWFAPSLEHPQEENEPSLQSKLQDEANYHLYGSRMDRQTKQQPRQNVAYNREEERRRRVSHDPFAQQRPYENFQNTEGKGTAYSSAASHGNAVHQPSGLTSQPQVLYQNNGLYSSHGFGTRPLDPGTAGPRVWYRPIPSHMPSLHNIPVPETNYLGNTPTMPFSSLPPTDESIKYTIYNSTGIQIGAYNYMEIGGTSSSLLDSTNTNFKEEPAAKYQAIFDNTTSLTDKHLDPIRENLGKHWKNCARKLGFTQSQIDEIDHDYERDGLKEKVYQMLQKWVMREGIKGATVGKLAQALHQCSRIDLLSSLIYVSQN
RIP3, sequence (Q9Y572 whole entry): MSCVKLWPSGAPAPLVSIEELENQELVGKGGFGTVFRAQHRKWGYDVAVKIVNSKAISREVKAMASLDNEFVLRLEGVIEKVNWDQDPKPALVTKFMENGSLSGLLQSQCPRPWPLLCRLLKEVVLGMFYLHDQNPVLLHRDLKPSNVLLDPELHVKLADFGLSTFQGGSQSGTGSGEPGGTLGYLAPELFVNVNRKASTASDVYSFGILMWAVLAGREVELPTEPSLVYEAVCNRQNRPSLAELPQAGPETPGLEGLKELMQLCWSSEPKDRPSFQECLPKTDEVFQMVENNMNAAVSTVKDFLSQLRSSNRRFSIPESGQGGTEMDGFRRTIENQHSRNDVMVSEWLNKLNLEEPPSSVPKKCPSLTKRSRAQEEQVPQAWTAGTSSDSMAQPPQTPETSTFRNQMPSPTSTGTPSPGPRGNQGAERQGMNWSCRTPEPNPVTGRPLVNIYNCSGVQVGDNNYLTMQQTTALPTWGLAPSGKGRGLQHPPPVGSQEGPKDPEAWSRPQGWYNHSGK
MLKL (full length), sequence (Q8NB16 whole entry): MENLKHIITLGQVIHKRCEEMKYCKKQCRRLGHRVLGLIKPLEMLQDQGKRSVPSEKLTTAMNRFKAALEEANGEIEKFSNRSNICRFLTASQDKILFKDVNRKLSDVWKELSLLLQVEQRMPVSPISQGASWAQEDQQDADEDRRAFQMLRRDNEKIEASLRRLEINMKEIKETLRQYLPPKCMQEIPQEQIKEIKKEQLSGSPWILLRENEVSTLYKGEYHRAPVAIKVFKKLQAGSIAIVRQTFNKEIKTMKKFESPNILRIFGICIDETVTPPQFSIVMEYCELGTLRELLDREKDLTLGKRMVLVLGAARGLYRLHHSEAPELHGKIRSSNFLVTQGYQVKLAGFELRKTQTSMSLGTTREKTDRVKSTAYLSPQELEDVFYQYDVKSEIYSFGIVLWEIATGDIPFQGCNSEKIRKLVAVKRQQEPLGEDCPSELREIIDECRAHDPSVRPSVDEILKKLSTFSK

Kd (MLKL (full length)) [µM] | Kd (RIP1) [µM] | Kd (RIP3) [µM] | SMILES
< 0.01 | > 30 | > 30 | CCS(=O)(=O)Nc1ccc(-c2n[nH]c(Nc3cnccn3)c2C(N)=O)cc1OCc1ccc(F)cc1C [Compound 171, 3-(4-(ethylsulfonamido)-3-((4-fluoro-2-methylbenzyl)oxy)phenyl)-5-(pyrazin-2-ylamino)-1H-pyrazole-4-carboxamide]
< 0.01 | > 30 | > 30 | C[C@H](Oc1cc(-c2n[nH]c(Nc3cc(C(C)(C)C)on3)c2C(N)=O)ccc1NS(=O)(=O)C(F)F)c1ccc(F)cc1 [Compound 282, (S)-5-((5-(tert-butyl)isoxazol-3-yl)amino)-3-(4-((difluoromethyl)sulfonamido)-3-(1-(4-fluorophenyl)ethoxy)phenyl)-1H-pyrazole-4-carboxamide]
< 0.01 | > 30 | > 30 | C[C@H](Oc1cc(-c2n[nH]c(Nc3ncn(C)n3)c2C(N)=O)ccc1NS(=O)(=O)C(F)F)c1ccc(F)cc1 [Compound 283, (S)-3-(4-((difluoromethyl)sulfonamido)-3-(1-(4-fluorophenyl)ethoxy)phenyl)-5-((1-methyl-1H-1,2,4-triazol-3-yl)amino)-1H-pyrazole-4-carboxamide]
< 0.01 |  | > 30 | CCS(=O)(=O)Nc1ccc(-c2n[nH]c(Nc3ccccn3)c2C(N)=O)cc1OCc1ccc(Cl)cc1 [Compound 39, 3-(3-((4-chlorobenzyl)oxy)-4-(ethylsulfon-amido)phenyl)-5-(pyridin-2-ylamino)-1H-pyrazole-4-carboxamide]
< 0.01 |  | > 30 | CCS(=O)(=O)Nc1ccc(-c2n[nH]c(Nc3ccccn3)c2C(N)=O)cc1OCc1cccc(Cl)c1 [Compound 38, 3-(3-((3-chlorobenzyl)oxy)-4-(ethylsulfon-amido)phenyl)-5-(pyridin-2-ylamino)-1H-pyrazole-4-carboxamide]
< 0.01 | > 30 | > 30 | CCS(=O)(=O)Nc1ccc(-c2n[nH]c(Nc3cccc(C(F)F)n3)c2C(N)=O)cc1OCc1ccc(F)cc1 [Compound 179, 5-((6-(difluoromethyl)pyridine-2-yl)amino)-3-(4-(ethylsulfonamido)-3-((4-fluorobenzyl)oxy)phenyl)-1H-pyrazole-4-carboxamide]
< 0.01 | > 30 | > 30 | NC(=O)c1c(-c2ccc(NS(=O)(=O)C(F)F)c(OCc3ccc(F)c(F)c3)c2)n[nH]c1Nc1ccccn1 [Compound 226]
< 0.01 | > 30 | > 30 | CCS(=O)(=O)Nc1ccc(-c2n[nH]c(Nc3cnccn3)c2C(N)=O)cc1OCc1ccc(F)c(F)c1 [Compound 1, 3-(3-((3,4-difluorobenzyl)oxy)-4-(ethylsulfonamido)phenyl)-5-(pyrazin-2-ylamino)-1H-pyrazole-4-carboxamide]
 | > 30 | > 30 | CCS(=O)(=O)Nc1ccc(-c2n[nH]c(Nc3cnccn3)c2C(N)=O)cc1OCc1cccc(C(F)(F)F)c1 [Compound 218, 3-(4-(ethylsulfonamido)-3-((3-(trifluoromethyl)benzyl)oxy)phenyl)-5-(pyrazin-2-ylamino)-1H-pyrazole-4-carboxamide]
 | > 30 | > 30 | COCCS(=O)(=O)Nc1ccc(-c2n[nH]c(Nc3cccc(C(F)(F)F)n3)c2C(N)=O)cc1 [Compound 50, 3-(4-((2-methoxyethyl)sulfonamido)phenyl)-5-((6-(trifluoromethyl)pyridin-2-yl)amino)-1H-pyrazole-4-carboxamide]
 | > 30 | > 30 | CCCS(=O)(=O)Nc1ccc(-c2n[nH]c(Nc3cnccn3)c2C(N)=O)cc1 [Compound 97, 3-(4-(propylsulfonamido)phenyl)-5-(pyrazin-2-ylamino)-1H-pyrazole-4-carboxamide]
 | > 30 | > 30 | COCCOc1cc(Nc2[nH]nc(-c3ccc(NS(=O)(=O)CCN(C)C)cc3)c2C(N)=O)ccn1 [Compound 116, 3-(4-((2-(dimethylamino)ethyl)sulfonamido)phenyl)-5-((2-(2-methoxyethoxy)pyridin-4-yl)amino)-1H-pyrazole-4-carboxamide]
 | > 30 | > 30 | CCS(=O)(=O)Nc1ccc(-c2n[nH]c(Nc3cccnn3)c2C(N)=O)cc1 [Compound 64, 3-(4-ethanesulfonamidophenyl)-5-[(pyridazin-3-yl)amino]-1H-pyrazole-4-carboxamide]
 | > 30 | > 30 | CCS(=O)(=O)Nc1ccc(-c2n[nH]c(Nc3ccnc(C)n3)c2C(N)=O)cc1 [Compound 125, 3-(4-(ethylsulfonamido)phenyl)-5-((2-methylpyrimidin-4-yl)amino)-1H-pyrazole-4-carboxamide]
 | > 30 | > 30 | CCS(=O)(=O)Nc1ccc(-c2n[nH]c(Nc3cccnc3)c2C(N)=O)cc1OCc1ccc(F)cc1 [Compound 6, 3-(4-(ethylsulfonamido)-3-((4-fluorobenzyl)oxy)phenyl) 5-(pyridin-3-ylamino)-1H-pyrazole-4-carboxamide]
 | > 30 | > 30 | C[C@H](Oc1cc(-c2n[nH]c(Nc3cc(C45CC6CC(CC(C6)C4)C5)on3)c2C(N)=O)ccc1NS(=O)(=O)C(F)F)c1ccc(F)cc1 [Compound 304]
 | > 30 | > 30 | CCS(=O)(=O)Nc1ccc(-c2n[nH]c(Nc3cnccn3)c2C(N)=O)c(OCc2cccc(F)c2)c1 [Compound 208, 3-(4-(ethylsulfonamido)-2-((3-fluorobenzyl)oxy)phenyl)-5-(pyrazin-2-ylamino)-1H-pyrazole-4-carboxamide]
 | > 30 | > 30 | CCS(=O)(=O)Nc1ccc(-c2n[nH]c(Nc3cccc(C(F)(F)F)n3)c2C(N)=O)cc1OCC1CCCC1 [Compound 10, 3-(3-(cyclopentyl-methoxy)-4-(ethylsulfon-amido)phenyl)-5-((6-(trifluoro-methyl)pyridin-2-yl)amino)-1H-pyrazole-4-carboxamide]
 | > 30 | > 30 | CCS(=O)(=O)Nc1ccc(-c2n[nH]c(Nc3cccnc3C(F)(F)F)c2C(N)=O)cc1OCc1ccc(F)cc1 [Compound 192, 3-(4-(ethylsulfonamido)-3-((4-fluorobenzyl)oxy)phenyl)-5-((2-(trifluoromethyl)pyridine-3-yl)amino)-1H-pyrazole-4-carboxamide]
 | > 30 | > 30 | CCS(=O)(=O)Nc1ccc(-c2n[nH]c(Nc3ccc(C(F)(F)F)cn3)c2C(N)=O)cc1OCc1ccc(F)cc1 [Compound 207]
 | > 30 | > 30 | CCS(=O)(=O)Nc1ccc(-c2n[nH]c(Nc3ccccn3)c2C(N)=O)cc1OCC1CCCCC1 [Compound 35, 3-(3-(cyclohexyl-methoxy)-4-(ethylsulfon-amido)phenyl)-5-(pyridin-2-ylamino)-1H-pyrazole-4-carboxamide]
 | > 30 | > 30 | CCS(=O)(=O)Nc1ccc(-c2n[nH]c(Nc3cnccn3)c2C(N)=O)cc1OCc1cccc(OC(F)(F)F)c1 [Compound 214, 3-(4-(ethylsulfonamido)-3-((3-(trifluoromethoxy)benzyl)oxy)phenyl)-5-(pyrazin-2-ylamino)-1H-pyrazole-4-carboxamide]
 | > 30 | > 30 | CN(C)CCS(=O)(=O)Nc1ccc(-c2n[nH]c(Nc3cccc(C(F)(F)F)n3)c2C(N)=O)cc1 [Compound 51, 3-(4-((2-(dimethylamino)ethyl)sulfonamido)phenyl)-5-((6-(trifluoromethyl)pyridin-2-yl)amino)-1H-pyrazole-4-carboxamide]
 | > 30 | > 30 | CCS(=O)(=O)Nc1ccc(-c2n[nH]c(Nc3cnccn3)c2C(N)=O)c(OC)c1 [Compound 209, 3-(4-(ethylsulfonamido)-2-methoxyphenyl)-5-(pyrazin-2-ylamino)-1H-pyrazole-4-carboxamide]
 | > 30 | > 30 | C[C@H](Oc1cc(NS(=O)(=O)C(F)F)ccc1-c1n[nH]c(Nc2cnccn2)c1C(N)=O)c1ccc(F)cc1 [Compound 243, 3-[4-(difluoromethanesulfonamido)-2-[(1 S)-1-(4-fluorophenyl)ethoxy]phenyl]-5-[(pyrazin-2-yl)amino]-1H-pyrazole-4-carboxamide]
 | > 30 | > 30 | C[C@@H](Oc1cc(NS(=O)(=O)C(F)F)ccc1-c1n[nH]c(Nc2cnccn2)c1C(N)=O)c1ccc(F)cc1 [Compound 255, 3-[4-(difluoromethanesulfonamido)-2-[(1R)-1-(4-fluorophenyl)ethoxy]phenyl]-5-[(pyrazin-2-yl)amino]-1H-pyrazole-4-carboxamide]
 | > 30 | > 30 | C[C@@H](Oc1cc(NS(=O)(=O)CC(F)(F)F)ccc1-c1n[nH]c(Nc2cnccn2)c1C(N)=O)c1ccc(F)cc1 [Compound 254, 3-{2-[(1R)-1-(4-fluorophenyl)ethoxy]-4-(2,2,2-trifluoroethanesulfonamido)phenyl}-5-[(pyrazin-2-yl)amino]-1H-pyrazole-4-carboxamide]
 | > 30 | > 30 | Cc1ccc(CS(=O)(=O)Nc2ccc(-c3n[nH]c(Nc4ccccn4)c3C(N)=O)cc2)cc1 [Compound 132, 5-(pyridin-2-ylamino)-3-(4-((p-tolylmethyl)sulfonamido)phenyl)-1H-pyrazole-4-carboxamide]
 | > 30 | > 30 | CC(C)(C)S(=O)(=O)Nc1ccc(-c2n[nH]c(Nc3cnccn3)c2C(N)=O)cc1 [Compound 69, 3-(4-((1,1-dimethylethyl)sulfonamido)phenyl)-5-(pyrazin-2-ylamino)-1H-pyrazole-4-carboxamide]

SMILES | Kd (MLKL (full length)) [µM] | Kd (RIP1) [µM] | Kd (RIP3) [µM]
CCS(=O)(=O)Nc1ccc(-c2n[nH]c(Nc3cccc(C(F)(F)F)n3)c2C(N)=O)cc1OCC(C)C [Compound 12, 3-(4-(ethylsulfonamido)-3-isobutoxyphenyl)-5-((6-(trifluoromethyl)pyridin-2-yl)amino)-1H-pyrazole-4-carboxamide] |  | > 30 | > 30
